ChEMBL document CHEMBL2176940, “Discovery of ligands for ADP-ribosyltransferases via docking-based virtual screening” (J Med Chem, 2012)

Target: T1, Protein mono-ADP-ribosyltransferase PARP15 (Homo sapiens) (UniProt Q460N3)
T1 sequence (whole entry): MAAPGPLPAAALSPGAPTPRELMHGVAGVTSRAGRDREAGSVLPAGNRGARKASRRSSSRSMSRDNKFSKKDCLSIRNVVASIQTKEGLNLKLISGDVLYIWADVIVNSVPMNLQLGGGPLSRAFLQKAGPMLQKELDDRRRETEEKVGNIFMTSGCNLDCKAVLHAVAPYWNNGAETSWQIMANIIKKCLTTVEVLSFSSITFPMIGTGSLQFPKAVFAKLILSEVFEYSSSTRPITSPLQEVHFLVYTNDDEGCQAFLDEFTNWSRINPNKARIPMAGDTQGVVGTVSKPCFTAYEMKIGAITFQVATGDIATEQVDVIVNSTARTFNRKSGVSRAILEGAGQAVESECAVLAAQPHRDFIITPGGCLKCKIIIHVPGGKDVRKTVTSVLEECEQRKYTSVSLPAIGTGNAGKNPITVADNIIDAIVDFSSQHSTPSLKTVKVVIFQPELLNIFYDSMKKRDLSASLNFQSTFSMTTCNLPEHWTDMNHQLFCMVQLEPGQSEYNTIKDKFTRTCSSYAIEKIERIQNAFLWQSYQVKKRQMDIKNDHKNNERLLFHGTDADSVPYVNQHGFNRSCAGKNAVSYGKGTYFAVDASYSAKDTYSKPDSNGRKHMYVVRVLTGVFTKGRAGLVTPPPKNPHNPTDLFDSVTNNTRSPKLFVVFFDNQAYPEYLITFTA
Description: Binding affinity at human recombinant ARTD7 expressed in Escherichia coli BL21 (DE3) R3 pRARE cells assessed as thermal stability shift by differential scanning fluorimetry

Work on `NC(=O)c1cccc(NC(=O)/C=C\C(=O)O)c1` yielded a ΔTm of 0.8 °C.
